Laboratory results from patent publication US8114645B2 (priority 2006, dated 2012).
Read-outs that look alike come from different tables or passages of the source.

Columns and labels:
[1] = system: E. coli DP10 expressing MevT gene constructs; test: Fatty acid supplementation of growth inhibited cells, 96-well plates, OD; assay type: cell-based; conditions: 100 μg/ml fatty acid with 400 μg/ml Brij, defined C medium, 96-well plate, arabinose induced; for growth of MevT expressing cells (pBad33MevT): E. coli DP10 pBad33MevT; for growth of cells containing pHMGS: E. coli DP10 pHMGS
Protocol: Media components and chemicals were purchased from Sigma-Aldrich (St. Louis, Mo.) and Fisher Scientific (Pittsburgh, Pa.). For cloning and propagation of E. coli strains harboring the various recombinant pathways, Luria broth with Miller's modification (Sigma) was used with appropriate antibiotics for plasmid selection and 0.06% glucose for the repression of PBAD and PLAC promoter systems. DL-mevalonate used for media supplementation was prepared by mixing 1 volume of 2 M DL-mevalonic acid lactone (Sigma-Aldrich) with 1.02 volumes of 2 M KOH and incubating at 37° C. for 30 min. Campos et al. (2001) Biochem J 353, 59-67. […] Enzymes for molecular biology were purchased from New England Biolabs (Beverly, Mass.) and Invitrogen. E. coli strains TOP 10 and DH10B, both from Invitrogen, were used for cloning and plasmid construction.
The optical density of samples taken from cultures in baffled flasks was measured using a UV-Spectrophotometer (Beckman), while the OD600 of cultures in 96-well microtiter plates was measured using a microtiter plate reader (SpectraMax, Molecular Devices).
E. coli DP10 cells harboring pBad33, pBad33MevT, pMevT(C159A), pHMGS, or pHMGSR were incubated and induced in 96-well plates in fully defined C medium containing 50 μg/ml chloramphenicol (see material and methods) with supplemental cis-Δ^9-18:1, 16:0, cis-Δ^9-16:1, or a equal mass mixture of 16:0 and cis-Δ^9-16:1. […] Overnight starter cultures were used to inoculate fresh C medium in a 96-well microtiter plate.

[2] = system: E. coli DP10 containing pBad33MevT, pHMGS or inactive controls; test: Cell growth with increased supplementation of saturated fatty acid 16:0, baffled shake flasks, OD600; assay type: cell-based
[3] = system: E. coli strains carrying a temperature sensitive fabD allele; conditions: Harder et al. 1972, 1974; cited from earlier work
[4] = system: E. coli DH10B harboring pBad33MevT or pBad33; conditions: LB with 10 g/L NaCl vs 0.5 g/L NaCl
Protocol: To further test if cells inhibited by the accumulation of HMG-CoA are suffering from osmotic stress, cells harboring pBad33MevT or pBad33 (the empty vector control) were incubated and induced in Luria Broth (LB) media with low (0.5 g/L) and high (10 g/L) concentrations of NaCl. […] Both culture media were supplemented with 1% (wt/vol) glycerol and 50 μg/ml chloramphenicol. Starter cultures of DH10B harboring either pBad33MevT or pBad33 were inoculated from single colonies and incubated overnight at 37° C. in LB media supplemented with 0.06% glucose (to repress the PBAD promoter) and chloramphenicol. Overnight starter cultures were diluted to an OD600 of 0.05 in either the low or high NaCl media in baffled shake flasks, incubated at 37° C. with continuous shaking and induced with the addition of 2 mM arabinose at an OD600 of approximately 0.39. The optical density of the culture was measured using a UV-Spectrophotometer (Beckman).

[5] = system: temperature sensitive mutants of fabB; conditions: Broekman and Steenbakkers 1973; cited from earlier work
[6] = system: E. coli DH10B containing plasmids pMevT, pMBIS, and pADS; test: Amorpha-4,11-diene production assay with mevalonate supplementation (GC-MS of dodecane overlay); assay type: cell-based; conditions: exogenous mevalonate added, tested up to 20 mM D,L-mevalonate; vs no supplementation
Protocol: Amorpha-4,11-diene production from E. coli strains expressing the full heterologous mevalonate pathway and amorphadiene synthase with or […] supplementation was assayed. E. coli DH10B containing plasmids pMevT, pMBIS, and pADS (FIGS. 5A and 5B) were grown in C medium containing 3.4% glycerol, 1% Casamino acids (BD, Franklin Lakes, N.J.), micronutrients, 50 μg/ml carbenicillin, 5 μg/ml tetracycline, and 25 μg/ml chloramphenicol with varying concentrations of exogenous mevalonate. […] Prior to inoculation, an overlay of 20% (v/v) dodecane (Sigma) was added to each culture flask to trap the volatile sesquiterpene product. […]
Dodecane/ethyl acetate extracts were analyzed on a Hewlett-Packard 6890 gas chromatograph-mass spectrometer (GC/MS). […] The resolved samples were analyzed by a Hewlett-Packard model 5973 mass selective detector that monitored ions 189 and 204 m/z. […] Since pure standards of amorpha-4,11-diene are not currently available, the concentrations were quantified in terms of caryophyllene equivalents. A standard curve for caryophyllene was determined, based on a pure standard. […]
To begin improving terpenoid production from engineered E. coli, limiting steps in the engineered pathway to amorphadiene were determined, as described in U.S. Pat. No. 7,183,089, U.S. Provisional Patent Application No. 60/802,266, Pitera et al. Metab Eng 9(2): 193-207 (2007), and as follows. […]

E. coli = test: Effect of extra-cellular mevalonate on growth of E. coli; assay type: cell-based; conditions: high extra-cellular concentrations

CCCCCCCCCCCCCCCC(=O)O [16:0, palmitic acid (hexadecanoic acid)]
growth of MevT expressing cells (pBad33MevT) [1]: improved the growth | growth of cells containing pHMGS [1]: clear, positive effect on the growth | cell growth on increasing the concentration above 100 μg/ml ([2]; 200 μg/ml vs 100 μg/ml, baffled shake flasks): no additional effect on cell growth | cell growth of the inactive pathway controls ([2]; DP10 harboring pMevT(C159A) or pHMGS(C159A), 100 or 200 μg/ml): not affected | growth inhibition caused by high expression of the MevT operon ([2]; E. coli DP10 pBad33MevT, 100 μg/ml with 400 μg/ml Brij, baffled shake flasks): completely alleviated the growth inhibition | growth of cells expressing HMGS alone ([2]; E. coli DP10 pHMGS, 100 μg/ml with 400 μg/ml Brij, baffled shake flasks): only improving the growth | growth at non-permissive temperatures [3]: shown to grow at non-permissive temperatures

[Cl-].[Na+] [NaCl]
growth of the empty vector control strain ([4]; DH10B containing pBad33): did not significantly affect | growth inhibition of E. coli cells expressing the MevT operon from pBad33MevT ([4]; DH10B, 2 mM arabinose): effectively alleviated the growth inhibition | osmolality of the culture medium (culture medium containing NaCl at 0.5 g/L): about 125 mOsm/kg H2O | osmolality of the culture medium (culture medium containing NaCl at 10 g/L): about 452 mOsm/kg H2O

CCCCCC/C=C\CCCCCCCC(=O)O [cis-Δ^9-16:1, palmitoleic acid]
growth of MevT expressing cells (pBad33MevT) [1]: detrimental to the growth | growth of cells containing pHMGS [1]: detrimental to the growth | growth at non-permissive temperatures [3]: not

CCCCCCCC/C=C\CCCCCCCC(=O)O [cis-Δ^9-18:1, oleic acid]
growth of MevT expressing cells (pBad33MevT) [1]: to a lesser extent, cis-Δ^9-18:1 improved the growth | growth under non-permissive conditions [5]: can grow

CC(O)(CCO)CC(=O)O (stereo not drawn) [mevalonate]
production of amorphadiene [6]: increased the production of amorphadiene | growth of E. coli (E. coli): no significant effect on the growth
